Patent publication US20020019527A1 (priority 2000, published 2002)
Where a name gives a salt, the structure may show the parent alone. Read-outs that look alike come from different tables or passages of the source.

Molecular target: T1, Farnesyltransferase (FTase) (Bos taurus, UniProt P29702+P49355)
T1 construct: precipitation from a beef brain homogenate; from tissue; host or cells: bovine brain
Assay: Farnesyltransferase inhibition (scintillation proximity assay, [3H]-FPP / biotin-K-ras peptide)
Format: biochemical, bovine
Procedure, shortened: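 Read-out: [3H]-FPP prenylation of a biotinylated K-ras peptide by SPA, measured 1 h after quenching. Enzyme: FTase purified from bovine brain (ammonium sulfate cut, DEAE Sepharose), free of GGTase I and II. Test compounds in ethanol, diluted 10-fold into the reaction.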

[1] = compound at 10^−6 M, bovine FTase, 37° C., 30 minutes

T1 sequence (P49355 whole entry, one chain of several): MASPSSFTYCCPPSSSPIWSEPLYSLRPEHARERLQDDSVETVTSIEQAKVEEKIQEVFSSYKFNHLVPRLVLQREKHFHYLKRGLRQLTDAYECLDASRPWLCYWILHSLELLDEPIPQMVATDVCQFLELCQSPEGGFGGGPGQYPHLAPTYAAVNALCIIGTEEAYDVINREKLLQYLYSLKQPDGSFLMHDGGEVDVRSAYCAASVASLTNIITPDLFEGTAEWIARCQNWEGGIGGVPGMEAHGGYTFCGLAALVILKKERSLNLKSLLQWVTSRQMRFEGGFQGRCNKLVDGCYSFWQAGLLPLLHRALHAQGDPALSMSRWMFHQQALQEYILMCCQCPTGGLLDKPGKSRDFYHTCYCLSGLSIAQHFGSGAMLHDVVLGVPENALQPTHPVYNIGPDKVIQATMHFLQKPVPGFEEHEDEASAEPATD

inhibition at 1 µM [1]	SMILES	also measured
–	Cc1ccccc1-c1cc(C(OCc2noc(-c3cccc(C(F)(F)F)c3)n2)c2cncn2C)ccc1C#N.Cl (stereo not drawn) [Example 169, 2′-methyl-5-((1,1-methyl-1H-imidazol-5-yl)((5-(3-(trifluoromethyl)phenyl)-1,2,4-oxadiazol-3-yl)methoxy)methyl)(1,1′-biphenyl)-2-carbonitrile hydrochloride]	% Inhibition at 10^−6M: 70%
85%	COc1ccc(C(C)=O)cc1COC(c1ccc(C#N)c(-c2ccccc2C)c1)c1cncn1C (stereo not drawn) [Example 170, 5-(((5-acetyl-2-methoxybenzyl)oxy)(1-methyl-1H-imidazol-5-yl)methyl)-2′-methyl(1,1′-biphenyl)-2-carbonitrile hydrochloride]	–
75%	Cc1ccccc1-c1cc(C(OCc2noc(-c3ccccc3)n2)c2cncn2C)ccc1C#N (stereo not drawn) [Example 171, 2′-methyl-5-((1-methyl-1H-imidazol-5-yl)((5-phenyl-1,2,4-oxadiazol-3-yl)methoxy)methyl)(1,1′-biphenyl)-2-carbonitrile hydrochloride]	–
85%	COc1ccc(-c2nc(COC(c3ccc(C#N)c(-c4ccccc4C)c3)c3cncn3C)no2)cc1 (stereo not drawn) [Example 172, 5-(((5-(4-methoxyphenyl)-1,2,4-oxadiazol-3-yl)methoxy)(1-methyl-1H-imidazol-5-yl)methyl)-2′-methyl(1,1′-biphenyl)-2-carbonitrile hydrochloride]	–
80%	COc1cccc(-c2nc(COC(c3ccc(C#N)c(-c4ccccc4C)c3)c3cncn3C)no2)c1 (stereo not drawn) [Example 173, 5-(((5-(3-methoxyphenyl)-1,2,4-oxadiazol-3-yl)methoxy)(1-methyl-1H-imidazol-5-yl)methyl)-2′-methyl(1,1′-biphenyl)-2-carbonitrile hydrochloride]	–
75%	Cc1ccccc1-c1cc(C(OCc2csc(-c3ccc(C(F)(F)F)cc3)n2)c2cncn2C)ccc1C#N (stereo not drawn) [Example 175, 2′-methyl-5-((1-methyl-1H-imidazol-5-yl)((2-(4-(trifluoromethyl)phenyl)-1,3-thiazol-4-yl)methoxy)methyl)(1,1′-biphenyl)-2-carbonitrile hydrochloride]	–
–	Cc1ccccc1-c1cc(C(OCc2c(C)ccc3ccccc23)c2cncn2C)ccc1C#N.Cl (stereo not drawn) [Example 178]	% Inhibition at 10^−6M: 90%
–	Cc1ccccc1-c1cc(C(OCc2c(C)c(C)cc(C)c2C)c2cncn2C)ccc1C#N.Cl (stereo not drawn) [Example 179]	% Inhibition at 10^−6M: 93%
–	Cc1ccccc1-c1cc(C(OCc2ccc(OC(F)(F)F)cc2)c2cncn2C)ccc1C#N.Cl (stereo not drawn) [Example 180]	% Inhibition at 10^−6M: 95%
93%	Cc1ccccc1-c1cc(C(OCc2cnc(Cl)c(Cl)c2)c2cncn2C)ccc1C#N (stereo not drawn) [Example 181, 5-(((5,6-dichloro-3-pyridinyl)methoxy)(1-methyl-1H-imidazol-5-yl)methyl)-2′-methyl(1,1′-biphenyl)-2-carbonitrile hydrochloride]	–
89%	Cc1ccccc1-c1cc(C(OCc2ncc(C(F)(F)F)cc2Cl)c2cncn2C)ccc1C#N (stereo not drawn) [Example 182, 5-(((3-chloro-5-(trifluoromethyl)-2-pyridinyl)methoxy)(1-methyl-1H-imidazol-5-yl)methyl)-2′-methyl(1,1′-biphenyl)-2-carbonitrile hydrochloride]	–
90%	Cc1ccccc1-c1cc(C(OCc2ccc3ccccc3c2)c2cncn2C)ccc1C#N (stereo not drawn) [Example 183, 2′-methyl-5-((1-methyl-1H-imidazol-5-yl)(2-naphthylmethoxy)methyl)(1,1′-biphenyl)-2-carbonitrile hydrochloride]	–
95%	Cc1ccccc1-c1cc(C(OCc2cccc(Br)c2)c2cncn2C)ccc1C#N (stereo not drawn) [Example 184, 5-(((3-bromobenzyl)oxy)(1-methyl-1H-imidazol-5-yl)methyl)-2′-methyl(1,1′-biphenyl)-2-carbonitrile hydrochloride]	–
85%	Cc1ccccc1-c1cc(C(OCc2ccccc2Br)c2cncn2C)ccc1C#N (stereo not drawn) [Example 185, 5-(((2-bromobenzyl)oxy)(1-methyl-1H-imidazol-5-yl)methyl)-2′-methyl(1,1′-biphenyl)-2-carbonitrile hydrochloride]	–
85%	Cc1ccccc1-c1cc(C(OCc2c(F)cccc2F)c2cncn2C)ccc1C#N (stereo not drawn) [Example 186, 5-(((2,6-difluorobenzyl)oxy)(1-methyl-1H-imidazol-5-yl)methyl)-2′-methyl(1,1′-biphenyl)-2-carbonitrile hydrochloride]	–
93%	Cc1ccccc1-c1cc(C(OCc2ccc(C(F)(F)F)cc2F)c2cncn2C)ccc1C#N (stereo not drawn) [Example 187, 5-(((2-fluoro-4-(trifluoromethyl)benzyl)oxy)(1-methyl-1H-imidazol-5-yl)methyl)-2′-methyl(1,1′-biphenyl)-2-carbonitrile hydrochloride]	–

inhibition at 1 µM [1]	SMILES	also measured
92%	Cc1ccccc1-c1cc(C(OCc2ccc(C(N)=O)cc2)c2cncn2C)ccc1C#N (stereo not drawn) [Example 188, 4-(((6-cyano-2′-methyl(1,1′-biphenyl)-3-yl)(1-methyl-1H-imidazol-5-yl)methoxy)methyl)benzamide]	–
95%	CNC(=O)c1ccc(COC(c2ccc(C#N)c(-c3ccccc3C)c2)c2cncn2C)cc1 (stereo not drawn) [Example 189, 4-(((6-cyano-2′-methyl(1,1′-biphenyl)-3-yl)(1-methyl-1H-imidazol-5-yl)methoxy)methyl)-N-methylbenzamide]	–
90%	Cc1ccccc1-c1cc(C(OCc2ccc(C(=O)N(C)C)cc2)c2cncn2C)ccc1C#N (stereo not drawn) [Example 190, 4-(((6-cyano-2′-methyl(1,1′-biphenyl)-3-yl)(1-methyl-1H-imidazol-5-yl)methoxy)methyl)-N,N-dimethylbenzamide]	–
–	Cn1cncc1CN(Cc1ccc(C#N)cc1)C(=O)c1ccc(C#N)c(-c2cccc3ccccc23)c1 [Example 191, 4-cyano-N-(4-cyanobenzyl)-N-((1-methy-1H-imidazol-5-yl)methyl)-3-(1-naphthyl)benzamide]	% Inhibition at 10^−6M [1]: 99%
91%	Cn1cncc1CN(Cc1ccc(C(=O)O)cc1)Cc1ccc(C#N)c(-c2cccc3ccccc23)c1 [Example 193, 4-(((4-cyano-3-(1-naphthyl)benzyl)((1-methyl-1H-imidazol-5-yl)methyl)amino)methyl)benzoic acid dihydrochloride]	–
97%	CC(=O)Nc1ccc(CN(Cc2ccc(C#N)c(-c3cccc4ccccc34)c2)Cc2cncn2C)cc1 [Example 194, N-(4-(((4-cyano-3-(1-naphthyl)benzyl)((1-methyl-1H-imidazol-5-yl)methyl)amino)methyl)phenyl)acetamide dihydrochloride]	–
98%	Cn1cncc1CN(Cc1ccc(S(C)(=O)=O)cc1)Cc1ccc(C#N)c(-c2cccc3ccccc23)c1 [Example 195, 4-((((1-methyl-1H-imidazol-5-yl)methyl)(4-(methylsulfonyl)benzyl)amino)methyl)-2-(1-naphthyl)benzonitrile dihydrochloride]	–
90%	Cn1cncc1CN(Cc1ccc(C#N)c(-c2cccc3ccccc23)c1)C(=O)c1ccc(C#N)cc1 [Example 196, 4-cyano-N-(4-cyano-3-(1-naphthyl)benzyl)-N-((1-methyl-1H-imidazol-5-yl)methyl)benzamide]	–
93%	Cn1cncc1CN(Cc1ccc(C#N)c(-c2cccc3ccccc23)c1)C(=O)c1ccc(Cl)c(Cl)c1 [Example 197, 3,4-dichloro-N-(4-cyano-3-(1-naphthyl)benzyl)-N-((1-methyl-1H-imidazol-5-yl)methyl)benzamide]	–
94%	Cn1cncc1CN(Cc1ccc(C#N)c(-c2cccc3ccccc23)c1)C(=O)c1ccc(Cl)c(F)c1 [Example 198, 4-chloro-N-(4-cyano-3-(1-naphthyl)benzyl)-3-fluoro-N-((1-methyl-1H-imidazol-5-yl)methyl)benzamide]	–
89%	Cn1cncc1CN(Cc1ccc(C#N)c(-c2cccc3ccccc23)c1)C(=O)c1cnc(Cl)c(Cl)c1 [Example 199, 5,6-dichloro-N-(4-cyano-3-(1-naphthyl)benzyl)-N-((1-methyl-1H-imidazol-5-yl)methyl)nicotinamide]	–
99%	Cn1cncc1C(OCc1ccc(C#N)cc1)c1ccc(C#N)c(-c2ccccc2C=O)c1 (stereo not drawn) [Example 200, 5-(((4-cyanobenzyl)oxy)(1-methyl-1H-imidazol-5-yl)methyl)-2′-formyl(1,1′-biphenyl)-2-carbonitrile hydrochloride]	–
99%	Cn1cncc1C(OCc1ccc(C#N)cc1)c1ccc(C#N)c(-c2ccccc2C(F)(F)F)c1 (stereo not drawn) [Example 201, 5-(((4-cyanobenzyl)oxy)(1-methyl-1H-imidazol-5-yl)methyl)-2′-(trifluoromethyl)(1,1′-biphenyl)-2-carbonitrile hydrochloride]	–
92%	Cn1cncc1C(OCc1ccc(C#N)cc1)c1ccc(C#N)c(-c2ccc(Cl)cc2Cl)c1 (stereo not drawn) [Example 202, 2′,4′-dichloro-5-(((4-cyanobenzyl)oxy)(1-methyl-1H-imidazol-5-yl)methyl)(1,1′-biphenyl)-2-carbonitrile hydrochloride]	–
86%	Cn1cncc1C(OCc1ccc(C#N)cc1)c1ccc(C#N)c(-c2cc3ccccc3s2)c1 (stereo not drawn) [Example 203, 2-(1-benzothien-2-yl)-4-(((4-cyanobenzyl)oxy)(1-methyl-1H-imidazol-5-yl)methyl)benzonitrile hydrochloride]	–
96%	Cn1cncc1C(OCc1ccc(C#N)cc1)c1ccc(C#N)c(-c2ccccc2CO)c1 (stereo not drawn) [Example 204, 5-(((4-cyanobenzyl)oxy)(1-methyl-1H-imidazol-5-yl)methyl)-2′-(hydroxymethyl)(1,1′-biphenyl)-2-carbonitrile]	–

SMILES	inhibition at 1 µM [1]	also measured
Cc1cc(COC(c2ccc(C#N)c(-c3ccccc3C)c2)c2cncn2C)no1 (stereo not drawn) [Example 177, 2′-methyl-5-((1-methyl-1H-imidazol-5-yl)((5-methyl-3-isoxazolyl)methoxy)methyl)(1,1′-biphenyl)-2-carbonitrile hydrochloride]	77%	–
